In patent US10485769B2, “Cholesteryl ester transfer protein (CETP) inhibition in the treatment of cancer” (KING ABDULLAH UNIVERSITY OF SCIENCE AND TECHNOLOGY, priority 2015, dated 2019):

Key:
BJ CETP siRNA cells = assay: Cholesterol levels in BJ CETP siRNA cells; assay type: cell-based, human; settings: treated with PL or AP or left untreated
MCF-7 cells = assay: Total cholesterol in cells, Amplex Red Cholesterol kit; assay type: cell-based, human; settings: 10 μM, within 2 h, compared to untreated cells
Method: FIG. 5: Cholesterol depletion by PL and AP. BJ, BT20 and MCF-7 cells were treated with 10 μM PL or AP for 2 h and cholesterol levels were determined with the Amplex Red Cholesterol kit as per manufacturer's instructions. Cells treated with 5 mg/ml MBCD was used as a positive control and fluorescence was measured with a Tecan plate reader. MCF-7 cells were pre-incubated with 1 mM cholesterol for 1 h followed by treatment with 10 μM PL or AP for 2 h (A). Apoptosis was determined by flow cytometry with the APOPercentage kit or Cells treated with MBCD and 5 mM H2O2 served as positive controls (B). Values represent the means±SD of three independent experiments.
Next, we determined the effects of PL and AP on cholesterol levels in cells. Within 2 h of treatment with PL or AP, total cholesterol was reduced by 35% in MCF-7 cells as compared to untreated cells (FIG. 5). To test whether cholesterol depletion occurred in other cell types or if this was limited to ER positive BC cells, BJ and BT20 cells were also treated with PL or AP (Fig.).

[1] = Toxicity in MCF-7 xenograft nude mice (survival, body weight, ALT, AST); settings: for survival of animals: 5 animals per group
Method: FIG. 3: Comparative efficacy and toxicity study in MCF-7 xenograft nude mouse model of BC. The efficacy of single i.p. injection of vehicle, PL (2 mg/kg) and AP (5 mg/kg) in 5 mice in each group was compared over a period of 21 days.
MCF-7 tumors grown up to 300 mm3 in four nude mice were harvested, dissected into 1-2 mm3 fragments and implanted into the study group for further testing. Nude mice (with tumor volume of 150 mm3) were treated with 25% Polyethylene glycol (PEG) 400 as vehicle, 2 mg/kg PL and 5 mg/kg AP for 21 days during which tumor volume, body weight and, at the time of sacrifice, tumor weight was measured.

CETP [2] = assay: CETP protein in mice serum, western blotting and densitometry; assay type: in vivo; settings: 2 mg/kg PL, 5 mg/kg AP, compared to Vehicle
Method: FIG. 7: Levels of CETP mRNA in tumor (A) and protein in serum (B) in mice tumor samples after treatment with 2 mg/kg PL or 5 mg/kg AP were determined with the RT-PCR and western blotting, respectively. Fold change in expression of serum protein was determined using densitometry analysis of western blots using ImageJ (C). CETP activity in serum was estimated using CETP activity kit (name of kit/manufacturer) (D). Values represent the means±SD of three independent experiments. * where p≤0.05, and ** where p≤0.005.
We performed qRT-PCR using mRNA isolated from mice tumor samples to determine the expression of CETP after treatment with PL and AP (FIG. 7A). […] CETP mRNA is translated into 74 kD protein comprised of 476 amino acids that localizes in plasma. […] CETP protein levels in mice serum samples were determined by western blotting (FIG. 7B).

BJ CETP knockdown cells = assay: Apoptosis in BJ CETP knockdown cells; assay type: cell-based, human; settings: 10 μM PL or AP
Method: FIG. 10: The effect of CETP mRNA silencing on MMP (A), Capase-3/7 activity (B) and apoptosis in MCF-7 (C) and BJ (D) untransfected, cntl siRNA and CETP knockout cells after treatment with 10 μM PL or AP. Values represent the means±SD of three independent experiments.
Next, we intended to see if CETP silencing increased sensitivity of MCF-7 cells to apoptosis.

CETP [3] = target: T1, CETP (Homo sapiens, UniProt P11597); assay: Thermal shift assay (TSA) in MCF-7 cells; assay type: binding; settings: 10 μM, two hours, 56° C. to 70° C.; untreated decreases around 64° C.
T1 construct: endogenous in cells; host or cells: MCF-7
T1 sequence (P11597 18-493): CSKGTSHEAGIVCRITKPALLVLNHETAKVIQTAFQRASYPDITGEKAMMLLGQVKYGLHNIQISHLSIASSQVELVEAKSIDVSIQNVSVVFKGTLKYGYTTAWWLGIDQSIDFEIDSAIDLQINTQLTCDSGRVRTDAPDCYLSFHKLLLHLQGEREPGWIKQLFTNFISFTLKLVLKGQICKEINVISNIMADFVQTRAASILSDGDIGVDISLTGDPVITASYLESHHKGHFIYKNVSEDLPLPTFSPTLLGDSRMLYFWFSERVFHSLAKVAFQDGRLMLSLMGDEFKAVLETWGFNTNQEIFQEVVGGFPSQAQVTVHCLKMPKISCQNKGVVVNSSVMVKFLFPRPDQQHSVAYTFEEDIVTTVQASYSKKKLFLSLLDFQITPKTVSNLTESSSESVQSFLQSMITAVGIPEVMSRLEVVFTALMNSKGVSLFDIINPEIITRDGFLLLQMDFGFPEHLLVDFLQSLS
Method: FIG. 14: Illustration of the amount of stabilized CETP protein in the presence of compounds using TSA. MCF-7 cells were left untreated (Untx) and were treated with 10 μM of AP/PL for two hours. TSA was performed using temperature range 56° C. to 70° C. with 2° C. intervals. The western blotting was performed after the assay and CETP was detected. The experiment was performed in duplicate.
Thermal shift assay (TSA) captures the drug protein binding using the fact that the thermostability of the protein is changed after ligand binding. We did three runs of TSA [20] to identify direct binding of AP with CETP (FIG. 14). […] Further studies are needed to study the effects of thermostability on function of CETP.

[4] = tested on: apoptosis-associated proteins in MCF-7 cells; assay: Western blotting of apoptosis-associated proteins; assay type: cell-based, human; settings: 10 μM; for PARP-1 cleavage: 12 and 24 h time points; for expression of DNA damage marker pH2AX: as early as 2 h, remained elevated
Method: FIG. 2: Mode of induction in MCF-7 cells after treatment with AP and PL was determined by measuring changes in MOMP and levels of apoptosis-associated proteins. The cells were incubated with 10 μM AP and PL for different time intervals to capture the timeline of apoptosis induction in MCF-7 cells. The changes in MOMP were measured using flow cytometry after treating MCF-7 cells with PL and AP for 1, 2 and 4 h (A). […] F).
Intrinsic apoptosis is activated by the mitochondria where MOMP is reduced and the imbalance between pro- and anti-apoptotic factors results in activation of caspases 9, 3 and 7, cleavage of caspase substrate like PARP-1 (Poly [ADP-ribose] polymerase 1) and fragmentation of DNA. After treatment with 10 μM PL and AP alterations in the ratio of Bax and Bcl2 were observed and pro-caspase 9 levels were reduced (FIGS. 2B and C).

MCF-7 CETP siRNA cells = assay: Total cholesterol in CETP knock-out MCF-7 cells, Amplex Red; assay type: cell-based, human; settings: 10 μM
Method: FIG. 8: Levels of total cholesterol in MCF-7 control (cntl) siRNA and CETP knock-out cells after treatment with 10 μM PL or AP were determined with the Amplex Red assay kit. Values represent the means±SD of three independent experiments.
We measured the amount of cholesterol in CETP knock-out MCF-7 untreated and/or treated with 10 μM AP and PL. […] (FIG. 8).

[5] = 2 mg/kg PL, 5 mg/kg AP, 21 days

Structure (SMILES) | cholesterol levels (BJ CETP siRNA cells) | reduction of total cholesterol (MCF-7 cells) [%] | ALT activity ([1]; 2 mg/kg PL) | AST activity ([1]; 2 mg/kg PL) | survival of animals [1, 5] | mice succumbed to treatment due to toxicity ([1]; 5 mg/kg PL, within four to six days) [mice] | CETP protein levels in serum (CETP [2]) | sensitivity to apoptosis (BJ CETP knockdown cells) | thermostability of CETP protein (CETP [3]) | pro-caspase 9 levels [4] | ratio of Bax and Bcl2 [4] | reduction of pro-caspase 7, time observed [4] | PARP-1 cleavage [4] | expression of DNA damage marker pH2AX [4] | total cholesterol in knock-out cells versus control siRNA cells (MCF-7 CETP siRNA cells) | reduction of ALT activity ([1]; 5 mg/kg AP) [%] | reduction of AST activity ([1]; 5 mg/kg AP) [%] | body weight ([1]; 5 mg/kg AP, 21 days)
CC1=CC(=O)c2c(O)cccc2C1=O [PL, 5-hydroxy-2-methyl-1,4-naphthoquinone, reference compound] | No significant changes | 35 | increased | increased | one mouse died | 8 | slightly reduced | no increased sensitivity to apoptosis | more stable even at 70 °C | reduced | alterations | as early as 2 and 6 h | substantially reduced from full length to the cleaved fragment | significantly increased | did not show results any different |  |  | 
CC(=O)Oc1cccc2c1C(=O)C=C(C)C2=O [AP, Acetyl Plumbagin] | No significant changes | 35 |  |  | survived |  | upregulated | no increased sensitivity to apoptosis | more stable even at 70 °C | reduced | alterations | reduced at 12 h | substantially reduced from full length to the cleaved fragment | significantly increased | did not show results any different | 36 | 7 | remained unaffected
